Format in all cases: cell-based
In assay [1] the test system is Candida glabrata (clinical isolate). Kind of assay: Broth dilution susceptibility test, MIC and percent growth (Example 5). To be noted: for MIC: 24 hours, 625 nm. As for the experimental part: These experiments were conducted to determine the effect of BromAc alone and in combination with existing antifungal drugs against Candida glabrata (clinical isolate).
A. Preparation of inoculum: • 1. Candida glabrata was grown on Sabouraud dextrose agar (SDA) at 37° C. for 24-48 hrs. • 2. Following this, 5 colonies of 1 mm diameter were picked and suspended in 5 mL sterile saline (0.9% saline) and vortexed for 15 seconds. • 3. Working suspension is prepared as a 1:100 dilution from stock suspension with RPMI 1640 culture medium. • 4. The cell density is adjusted with a spectrophotometer to the transmittance produced by a 0.5 McFarland standard (0.08 to 0.1) OD at 625 nm wavelength.
• 1. For Bromelain, a stock concentration of 1 mg/ml Bromelain solution was prepared in RPMI media and diluted to test concentrations of 62.4, 31.2, 15.6 and 7.8 μg/ml in RPMI 1640 media. • 2. Acetylcysteine stock concentration is 200 mg/ml, diluted to 40, 20, 10, and 5 mg/ml concentrations in RPMI 1640 medium. • 3. These concentrations are prepared at 2× of the required concentrations in the final assay plate.
Antifungal stock concentrations are as follows— • 1. Amphotericin B, Stock concentration: 250 μg/ml in water. • 2. Posaconazole, Original concentration: 300 mg in 16.7 ml, Working stock concentration: 1 mg/ml in DMSO. • 3. Fluconazole, Original concentration: 100 mg in 50 ml, Working stock concentration: 1 mg/ml in DMSO. • 4. The final concentration was prepared in RPMI 1640 media and concentrations range was 0.01-0.5 μg/mL for amphotericin B, 0.01-2 μg/mL for posaconazole and 0.01-64 μg/mL for fluconazole. • 5. These concentrations were prepared at 2× of the required concentrations in the final assay plate.
• 1. Wells of the 96-well plates were inoculated with appropriate concentrations and volumes of drugs. • 2. Sterility control and growth controls are included in each plate. • 3. Each 96-well plate (except the control wells) contains 100 μL of double strength (twice the final antifungal drug) concentrations. • 4. 100 μL of the fungal suspension is added to 96-well plates (except the sterility control wells). • 5. The growth control wells contained 100 μL of sterile drug-free medium and 100 μL of inoculum suspension, while the sterility control wells contained 200 μl of sterile drug-free medium. • 6. Plates are then incubated at 37° C. and read at 625,430, and 530 nm wavelengths. • 7. Data from 24 hours and absorbance at 625 nm were used for analysis.

For a further assay, the system named is Lomentospora. Kind of assay: Susceptibility assay of antifungals with BromAc (Example 4). To be noted: antifungal in combination with BromAc (5 mg/ml Acetylcysteine+12.5 μg/ml Bromelain) vs alone. The gist of the method:
(§1)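 Isolates were matured on potato dextrose agar at 35° C. and suspended in water, then diluted 1:60 in RPMI. Equal volumes were added to antifungal solutions, with or without BromAc (5 mg/ml acetylcysteine + 12.5 μg/ml bromelain). Plates were incubated 24 hr at 35° C. before MICs were scored.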

The next assay deals with Cunninghamella. Described as above. To be noted: for Observed inhibitory effect: antifungal in combination with BromAc (5 mg/ml Acetylcysteine+12.5 μg/ml Bromelain) vs alone. The gist of the method: as §1
The subject of the next assay is Scedosporium. The description is as above. To be noted: antifungal in combination with BromAc (5 mg/ml Acetylcysteine+12.5 μg/ml Bromelain) vs alone. The gist of the method: as §1
For another assay, the system named is Candida auris. The assay is described as above. As to conditions: for isolates with more than 10× increase: Candida auris, antifungal with BromAc; for Observed inhibitory effect: Candida aurus, antifungal in combination with BromAc (5 mg/ml Acetylcysteine+12.5 μg/ml Bromelain) vs alone. The gist of the method: as §1
The test system of the next assay is Mucor circinelloides. The description is as above. As to conditions: for Observed inhibitory effect: antifungal in combination with BromAc (5 mg/ml Acetylcysteine+12.5 μg/ml Bromelain) vs alone; for isolates with increased sensitivity: antifungal with BromAc. The gist of the method:
as §1

The test system of a further assay is Licthemia. The assay is described as above. As to conditions: antifungal in combination with BromAc (5 mg/ml Acetylcysteine+12.5 μg/ml Bromelain) vs alone. The gist of the method:
as §1

The structures appear in SMILES notation.

`C[C@@H]1[C@H](O)[C@@H](C)/C=C/C=C/C=C/C=C/C=C/C=C/C=C/[C@H](O[C@@H]2O[C@H](C)[C@@H](O)[C@H](N)[C@@H]2O)C[C@@H]2O[C@](O)(C[C@@H](O)C[C@@H](O)[C@H](O)CC[C@@H](O)C[C@@H](O)CC(=O)O[C@H]1C)C[C@H](O)[C@H]2C(=O)O` [Amphotericin B]: the minimum inhibitory concentration (MIC) in assay [1] (Nakaseomyces glabratus, measured at 90% growth inhibition) was found to be 1 µg/mL. The Observed inhibitory effect entry with Lomentospora was “No effect”; with Cunninghamella, “Possible”; in the assay on Scedosporium, “No effect”; in the assay on Candida auris, “Moderate (Moderate = 1-5x inhibitory effect)”; in the assay on Mucor circinelloides, “Strong (Strong = 5-10x (or greater) inhibitory effect)”; with Licthemia, “Moderate (Moderate = 1-5x inhibitory effect)”. The “isolates with more than 10× increase” value with Candida auris is reported as 2 of 5. For the same compound, the “isolates with increased sensitivity” value in the assay with Mucor circinelloides was 2 of 2.
As to `CC[C@@H]([C@H](C)O)n1ncn(-c2ccc(N3CCN(c4ccc(OC[C@@H]5CO[C@@](Cn6cncn6)(c6ccc(F)cc6F)C5)cc4)CC3)cc2)c1=O` [Posaconazole], the minimal inhibitory concentration (MIC) in assay [1] (Nakaseomyces glabratus, 50% growth inhibition) amounted to 2 µg/mL. The inhibition at 2 µg/mL in assay [1] (Nakaseomyces glabratus, at 2 μg/ml, read-out: decline in C. glabrata viability over the growth control) was found to be 25%. Moreover, the “effect on C. glabrata viability / growth (in words)” value in assay [1] (at the concentrations tested, FIGS. 3-7) was “weaker antifungal effect”. For the same compound, in assay [1] (concentrations lower than the MIC), the “effect at lower concentration compared to growth control (in words)” value is “slight decline”. For the same compound, the Observed inhibitory effect result in the assay on Lomentospora is “No effect”; in the assay with Cunninghamella, “Moderate (Moderate = 1-5x inhibitory effect)”; in the assay on Scedosporium, “Possible”; with Candida auris it was “Strong (Strong = 5-10x (or greater) inhibitory effect)”; with Mucor circinelloides, “Strong (Strong = 5-10x (or greater) inhibitory effect)”; in the assay with Licthemia it was “Moderate (Moderate = 1-5x inhibitory effect)”. The “interaction with BromAc (in words)” value in the assay on Cunninghamella (antifungal with BromAc) was “some synergy”. For the same compound, in the assay on Candida auris, the “isolates with more than 10× increase” value is listed as 4 of 5. Further, in the assay with Mucor circinelloides, the “isolates with increased sensitivity” value is given as 1 of 2.

The values above are taken from patent US20260207720A1, “COMPOSITIONS AND METHODS FOR TREATING FUNGAL INFECTIONS” (MUCPharm Pty Ltd, priority 2022, published 2026).
